Experimental data: patent US10526317B2, “Benzocyanine compounds” (PIERCE BIOTECHNOLOGY, INC., priority 2012, dated 2020)

What was measured:
[1] = Absorption/emission profiles and spectral properties of the dyes; type: physicochemical
Method: The following properties of 679 Compound 1-NHS were compared with commercially available dyes.
Emission/excitation profiles for inventive and commercial compounds was determined by reconstituting the compounds in DMF at 10 mg/ml and then diluting in PBS buffer pH 7.2 to 10 μg/ml. Absorbance spectra were collected on Cary UV spectrophotometer and emission spectra were collected on Tecan Safire, shown in FIG. 1 where solid lines represent absorbance spectra and dashed lines represent emission spectra, for DyLight 680-NHS (purple), DyLight 680B-NHS (blue), 679 Compound 1-NHS (red), and Company B Compound-NHS (black). The maximum absorbance and emission for each compound is shown below.
The following properties of 679 Compound 1-NHS, 679 Compound 4/4-NHS (V08-15173), and 679 Compound 4/4-NHS (V10-04152) were compared with commercially available dyes.

CEA = tested on: CEA; design: species or system nu/nu mice; conditions: mouse
Method: The inventive compounds are used for in vivo imaging as described in J. Gastrointest Surg (2008) 12:1938-1950. Briefly, human pancreatic cell lines are maintained in media supplemented with penicillin/streptomycin at 37° C. with 5% CO2. Mouse anti-CEA antibody and Control Mouse IgG (in PBS with 0.20% sodium azide) are conjugated to V08-15173. The dye is reconstituted at 10 mg/ml in DMF and then added to the antibody at a 10 molar excess. The reaction is carried out for one hour at room temperature. The samples are then dialyzed against 3×2 L of PBS. The cell lines are plated in 96-well plates at 5×10^4 cells per well. After 48 hours culture in appropriate media, the cells are incubated with 1 μg of V08-15173 labeled anti-CEA antibody or V08-15173-labeled control mouse IgG for four hours at 37° C. The cells are then washed three times with PBS and then imaged with an inverted Nikon De-485 microscope and Spot camera RD.
Surgical procedures and intravital imaging are performed with the animals anesthesized by intramuscular injection of 0.02 ml of 50% ketamine, 38% xylazine and 12 acepromazine maleate. Human pancreatic and colorectal cancer cell lines are harvested by trypsinization and washed twice with serum free medium and washed twice with serum-free medium. Cells (1×10^6 in 100 μl of serum-free media) are injected subcutaneously within 30 minutes of harvesting over the right flank in female nu/nu mice between 4-6 weeks of age. Subcutaneous tumors are allowed to grow for 7-14 days until they reached diameter of 1-2 mm prior to the delivery of conjugated antibody. For ASPC-1 implants, the cells are harvested by trpsinization and washed 3× in serum-free media. The cells are resuspended in serum-free media. The cells are resuspended in serum-free media at 5×10^6/ml. A volume of 200 μl of the cell suspension is then injected directly into the peritoneal cavity within 30 minutes of harvesting.
For antibody delivery, one to two weeks after subcutaneous, orthotopic, or intraperitoneal tumor implantation, animals are given intravenous (i.v.) injection of either conjugated anti-CEA or conjugated control IgG antibody diluted in PBS to a final volume of 100 μl. All i.v. injections are done via the tail vein. For the dose-response experiment, the antibody dose is 75 μg. For the in vivo time course, the animals are anesthesized and imaged at 30 min, 1, 2, 6, 24 hours and 8 and 15 days after systemic antibody delivery.
The inventive compounds are used for in vivo imaging as described in J. Gastrointest Surg (2008) 12:1938-1950. Briefly, human pancreatic cell lines are maintained in media supplemented with penicillin/streptomycin at 37° C. with 5% CO2. Mouse anti-CEA antibody and Control Mouse IgG (in PBS with 0.20% sodium azide) are conjugated to 779 Compound 1. […]

[2] = Micro conjugation (labeling of ≥0.1 mg monoclonal antibody): D/P, protein recovery, free dye; conditions: 15 μg dye or commercial kit, mouse MAb
Method: Another experiment set used inventive and commercial compounds, each as the NHS ester, in a micro conjugation (labeling of≥0.1 mg antibody). […] The antibodies were labeled and purified as described above.

[3] = first property table of Example 6
[4] = second property table of Example 6

COCC[N+]1=C(/C=C/C=C/C=C2/N(CCCCCC(=O)O)c3ccc4c(S(=O)(=O)[O-])cc(S(=O)(=O)[O-])cc4c3C2(C)C)C(C)(CCCS(=O)(=O)[O-])c2c1ccc1c(S(=O)(=O)[O-])cc(S(=O)(=O)[O-])cc21.[Na+].[Na+].[Na+].[Na+] (single isomer, unassigned) [679 Compound 1/1 (Isomer 1), 2-{(1E,3E)-5-[3-(5-Carboxypentyl)-1,1-dimethyl-6,8-disulfo-1,3-dihydro-benzo[e]indol-(2E)-ylidene]-penta-1,3-dienyl}-3-(2-methoxy-ethyl)-1-methyl-6,8-disulfo-1-(3-sulfopropyl)-1H-benzo[e]indolium]
UV-vis (PBS): λmax ([1]; PBS): 679 nm | λem ([1]; PBS): 698 nm

COCC[N+]1=C(/C=C/C=C/C=C2/N(CCCCCC(=O)O)c3ccc4c(S(=O)(=O)[O-])cc(S(=O)(=O)[O-])cc4c3C2(C)C)C(C)(CCCS(=O)(=O)[O-])c2c1ccc1c(S(=O)(=O)[O-])cc(S(=O)(=O)[O-])cc21.[Na+].[Na+].[Na+].[Na+] (single isomer, unassigned) [679 Compound 1/1 (Isomer 2), 2-{(1E,3E)-5-[3-(5-Carboxypentyl)-1,1-dimethyl-6,8-disulfo-1,3-dihydro-benzo[e]indol-(2E)-ylidene]-penta-1,3-dienyl}-3-(2-methoxy-ethyl)-1-methyl-6,8-disulfo-1-(3-sulfopropyl)-1H-benzo[e]indolium]
λem ([1]; PBS): 698 nm

COCC[N+]1=C(/C=C/C=C/C=C2/N(CCCCCC(=O)ON3C(=O)CCC3=O)c3ccc4c(S(=O)(=O)[O-])cc(S(=O)(=O)O)cc4c3C2(C)C)C(C)(CCCS(=O)(=O)O)c2c1ccc1c(S(=O)(=O)O)cc(S(=O)(=O)O)cc21 (stereo not drawn) [679 Compound 1-NHS]
Em (nm) [1, 3]: 698 nm | Ex (nm) [1, 3]: 679 nm | Em (nm) [1, 4]: 698 nm | Ex (nm) [1, 4]: 679 nm | ε (M^−1cm^−1) (theoretical) ([1]; theoretical): 180,000 M^−1cm^−1 | ε (M−1cm−1) (theoretical) ([1]; theoretical): 180,000 M−1cm−1

COCC[N+]1=C(/C=C/C=C/C=C/C=C2/N(CCCCCC(=O)O)c3ccc4c(S(=O)(=O)[O-])cc(S(=O)(=O)O)cc4c3C2(C)C)C(C)(CCCS(=O)(=O)O)c2c1ccc1c(S(=O)(=O)O)cc(S(=O)(=O)O)cc21 (stereo not drawn) [779 Compound 1]
Ex vivo analysis of the vital organs (in words) (CEA): presence of dye predominantly in the liver with some signal detected in the spleen intestines and lungs | post-experiment surgical exposure (in words) (CEA; in vivo): accumulation of dye in the liver, bladder, and a region of inflammation in the subcutaneous tissue

COCCOCCOCCOCC[N+]1=C(/C=C/C=C/C=C2/N(CCOCCOCCOCCOCCC(=O)ON3C(=O)CCC3=O)c3ccc4c(S(=O)(=O)[O-])cc(S(=O)(=O)O)cc4c3C2(C)CCOCCOCCOCCOC)C(C)(CCOCCOCCOCCOC)c2c1ccc1c(S(=O)(=O)O)cc(S(=O)(=O)O)cc21 (stereo not drawn) [V08-15173 NHS]
Em (nm) [1, 4]: 706 nm | Ex (nm) [1, 4]: 684 nm | ε (M^−1cm^−1) (theoretical) ([1]; theoretical): 180,000 M^−1cm^−1

Alexa 680-PDI
% Free Dye [2]: 9%

Alexa 680-cytochrome C
% Free Dye [2]: 3%

CF 680-cytochrome C
% Free Dye [2]: 17%

CF 680R-cytochrome C
% Free Dye [2]: 5%
